Results: US20120129835A1 (priority 2010, published 2012)

Test system: SCZD hiPSC neurons
Format: cell-based, human

Compound	rabies trans-neuronal tracing in the presence of drugs known to affect synaptic transmission
[Cl-].[K+] [KCl]	occurs
NC1=N[C@H](O)[C@H]2[C@H]3O[C@]4(O)O[C@@H]([C@@H](O)[C@@]2(N1)[C@@H]4O)[C@]3(O)CO [tetrodotoxin]	occurs
ryanodine	occurs
